SMILES strings stand for the structures.

Results on 1 molecule are retold here after patent publication US10835513B2, “Methods and treatments for the learning and memory deficits associated with Noonan syndrome” (The Regents of the University of California, priority 2013, dated 2020).

The subject of this assay is AAV-PTPN11^D61G-expressing mice. The experiment in a line: Morris water maze (hidden platform, probe trial) in AAV-PTPN11^D61G-expressing mice treated with SL327. The assay is classed as in vivo. The following applies: for proximity to the target platform, probe trial: SL327 32 mg/kg intraperitoneal. As to the method: To test whether reducing Erk activity could reverse the memory deficit in AAV-PTPN11^D61G-expressing mice, we treated these mice with the MEK inhibitor SL327 or vehicle daily, 30 min before training.
SL327 (Tocris) was dissolved in DMSO (16 mg/ml) and was injected intraperitoneally once daily, 30 min before the water maze experiment at a dose of 32 mg/kg. The volume of a single injection was under 80 μl. Lovastatin (Mevinolin, Sigma) was prepared as previously described^21. Briefly, lovastatin was dissolved in ethanol (final concentration of 8%) and 1N NaOH was added to convert mevinolin to the sodium salt. The pH of the final solution (4 mg/ml) was adjusted to 7.5 with HCl. The Vehicle solution was prepared with the same procedure. Lovastatin was administered daily (subcutaneous injection, 10 mg/kg) for 3 days before the first training day of the water maze and 6 hr before training every day thereafter.
The coding sequence of human PTPN11 with or without the D61G mutation was subcloned into the HindIII-NsiI site of the AAV expression vector pSOFF. The resultant vector expresses mutant PTPN11 under the synthetic CBA promoter (CMV enhancer and chicken beta-actin promoter). Recombinant virus (rAAV5) was purified as previously described^32. Briefly, an iodixanol gradient purification was performed followed by ion exchange chromatography step which results in a 99% pure vector preparation as judged by silver stained-SDS acrylamide gel fractionation. After the chromatography, the buffer was exchanged and the virus was concentrated in Ringer's solution using a Biomax 100 K concentrator (Millipore). Vector titers were determined by Real Time PCR. Typical titers were 3.09×10^12 genome copies/ml. rAAV5-GFP expressing only GFP was used as a control. […]
In the hidden platform-version of Morris water maze, mice were trained with two blocks of 2 trials (ITI=1 min) spaced about 45 min apart. […] Memory was assessed in probe trials that were given after completion of training as described in the main text. […] Data were acquired and analyzed using WaterMaze software (Actimetrics).

For the molecule `N#C/C(=C(/N)Sc1ccc(N)cc1)c1ccccc1C(F)(F)F` [SL327], the “proximity to the target platform, probe trial” value turned out to be 43.75±1.45 cm (GFP control group) and 45.52±2.14 cm (PTPN11^D61G group). Besides, the “time spent in the target quadrant, probe trial” value (PTPN11^D61G-expressing mice, SL327 32 mg/kg intraperitoneal daily, 30 min before training) worked out at 37.25±3.50%.
